Results from patent US11541033B2, “Agent for preventing or treating Alzheimer's disease” (FUJIFILM Toyama Chemical Co., Ltd., priority 2017, dated 2023).

Key:
Type in all cases: in vivo, human
[1] = test system: mild to moderate AD patients; experiment: Test Example 1: phase II placebo-controlled trial, ADCS-ADL change from baseline
Text: (§1) Test Example 1 Multicenter Randomized Double-Blind Phase II Placebo-Controlled Trial for Assessing Effectiveness and Safety of Compound a in Mild to Moderate AD Patients
(§2) Patients were screened in a period from 42 days before treatment assignment to the assignment based on the following selection criteria. Patients matched (484 patients) were randomly divided into the following 3 groups and the trial was started.
(§3) • Patients who were probable AD and are 55 years old or older and 85 years old or younger at the time of obtaining consent of screening. • Patients with an MMSE score of 12 to 22 at the time of screening • Patients with a Modified Hachinski Ischemia Scale score of 4 or less • Patients who have been treated with a donepezil hydrochloride or rivastigmine transdermal system for at least 4 months before the baseline and with a stable dose thereof for 3 months before the baseline. • In the case of patients who have received memantine in addition to being treated with a donepezil hydrochloride or rivastigmine transdermal system, patients who have been treated with memantine for at least 4 months before the baseline and with a stable dose thereof for 3 months before the baseline. • Patients whose brain MRI or CT results match AD at the time of screening Organization of Groups: (1) High dose group: 224 mg of a test compound (160 mg in terms of Compound A) was orally administered once a day for 4 weeks and then 448 mg of a test compound (320 mg in terms of Compound A) was orally administered once a day for 48 weeks (158 patients) (2) Low dose group: 224 mg of a test compound (160 mg in terms of Compound A) was orally administered once a day for 52 weeks (166 patients) (3) Placebo group: placebo was orally administered once a day for 52 weeks (158 patients) Method of assessment: (1) ADAS-cog
(§4) The ADCS-ADL score of the subject was evaluated at the baseline (before administration of investigational drug on the first day of administration) and after 52 weeks and the level of impairment was assessed based on the change from the baseline.
(§5) Changes in the ADAS-cog score and the ADCS-ADL score after 52 weeks from the baseline were compared between the high dose group and the placebo group, and between the low dose group and the placebo group based on the Mixed-effect Models for Repeated Measures (MMRM) with a significance level of 5%. For models, fixed effects included the treatment groups and time, while covariates included age, the baseline of ADAS-cog or ADCS-ADL, the baseline of MMSE and ApoE4 genotype (positive/negative). The interaction between time and the treatment groups and the interaction between the baseline of ADAS-cog and time were also included.

[2] = test system: mild to moderate AD patients; experiment: Test Example 2: early phase II placebo-controlled trial, ADAS-cog change from baseline; details: for Change in ADAS-cog from baseline at week 52, least square means (95% confidence interval) / Change in ADAS-cog from baseline at week 52, difference from placebo group (95% confidence interval): MMSE 22 or less at screening
Text: (§6) Test Example 2 Multicenter Randomized Double-Blind Early Phase II Placebo-Controlled Trial for Assessing Effectiveness and Safety of Compound a in Mild to Moderate AD Patients
(§7) Patients were screened in a period from 28 days before treatment assignment to the assignment based on the following selection criteria. Patients matched (373 patients) were randomly divided into the following 2 groups and the trial was started.
(§8) • Patients who were probable AD and over or 50 years old or older and 90 years old or younger at the time of obtaining consent of screening. • Patients with an MMSE score of 15 to 24 at the time of screening • Patients with a Modified Hachinski Ischemia Scale score of 4 or less • Patients who have been treated with a donepezil hydrochloride for at least 6 months before the baseline and with a stable dose thereof for 3 months before the baseline. • Patients whose brain MRI or CT results match AD at the time of screening Organization of Groups: (1) Active drug group: 224 mg of a test compound (160 mg in terms of Compound A) was orally administered once a day for 52 weeks (176 patients) (2) Placebo group: placebo was orally administered once a day for 52 weeks (178 patients) Method of assessment: (1) ADAS-cog
(§9) The ADAS-cog score of the subject was evaluated at the baseline (before administration of investigational drug on the first day of administration) and after 52 weeks and the cognitive function was assessed based on the change from the baseline.
(§10) Changes in the ADAS-cog score and the ADCS-ADL score after 52 weeks from the baseline were compared between the high dose group and the placebo group, and between the low dose group and the placebo group based on MMRM with a significance level of 5%. For models, fixed effects included the treatment groups and time, while covariates included the baseline of ADAS-cog or ADCS-ADL and the baseline of MMSE. The interaction between time and the treatment groups and the interaction between the baseline of ADAS-cog and time were also included. For the period from clinical diagnosis, the first day of administration of donepezil hydrochloride which was combined with Compound A was defined as the time of clinical diagnosis. Furthermore, to match the conditions with those of Test Example 1, the subject was patients with an MMSE score of 22 or less at the time of screening.

[3] = test system: mild to moderate AD patients; experiment: Test Example 2: early phase II placebo-controlled trial, ADCS-ADL change from baseline; details: for Change in ADCS-ADL from baseline at week 52, least square means (95% confidence interval) / Change in ADCS-ADL from baseline at week 52, difference from placebo group (95% confidence interval): MMSE 22 or less at screening
Text: as §6, §7, §8, §4, §10

[4] = test system: mild to moderate AD patients; experiment: Test Example 1: phase II placebo-controlled trial, ADAS-cog change from baseline; details: Test Example 1; all subject patients
Text: as §1, §2, §3, §9, §5

[5] = high dose group, more than 2.6 years from clinical diagnosis
[6] = high dose group, total (all periods from clinical diagnosis)
[7] = low dose group (160 mg in terms of Compound A, oral once a day, 52 weeks), within 2.6 years from clinical diagnosis
[8] = low dose group (160 mg), more than 2.6 years from clinical diagnosis
[9] = low dose group (160 mg), total (all periods from clinical diagnosis)
[10] = low dose group (160 mg), within 2.6 years from clinical diagnosis
[11] = low dose group (160 mg), total (all periods)

## OC1CN(CCCOCCc2ccc3sccc3c2)C1 [Compound A, 1-(3-(2-(1-benzothiophen-5-yl)ethoxy)propyl)azetidin-3-ol]
[1]; Test Example 1, high dose group
  Reduction in ADCS-ADL from the baseline at week 52 (in words): tended to be suppressed
[1]; Test Example 1, high dose group, week 52
  Tendency to suppress reduction in ADCS-ADL, patients within 2.6 years versus all patients (in words): more remarkable
[1]; high dose group (160 mg 4 weeks then 320 mg 48 weeks, oral once a day), within 2.6 years from clinical diagnosis
  Change in ADCS-ADL from baseline at week 52, least square means (95% confidence interval): −8.6(−11.2, −5.9)
[1]; [5]
  Change in ADCS-ADL from baseline at week 52, difference from placebo group (95% confidence interval): −0.9 (−4.7, 2.8)
  Change in ADCS-ADL from baseline at week 52, least square means (95% confidence interval): −11.6(−14.5, −8.8)
[1]; [6]
  Change in ADCS-ADL from baseline at week 52, difference from placebo group (95% confidence interval): 1.2(−1.3, 3.8)
  Change in ADCS-ADL from baseline at week 52, least square means (95% confidence interval): −10.1(−12.0, −8.1)
[1]; high dose group, within 2.6 years from clinical diagnosis
  Change in ADCS-ADL from baseline at week 52, difference from placebo group (95% confidence interval): 3.1(−0.4, 6.6)
[1]; [7]
  Change in ADCS-ADL from baseline at week 52, least square means (95% confidence interval): −11.7(−14.5, −9.0)
[1]; [8]
  Change in ADCS-ADL from baseline at week 52, difference from placebo group (95% confidence interval): 0.3(−3.2, 3.8)
  Change in ADCS-ADL from baseline at week 52, least square means (95% confidence interval): −10.4(−13.0, −7.8)
[1]; [9]
  Change in ADCS-ADL from baseline at week 52, difference from placebo group (95% confidence interval): 0.2(−2.3, 2.7)
  Change in ADCS-ADL from baseline at week 52, least square means (95% confidence interval): −11.0(−13.0, −9.1)
[1]; [10]
  Change in ADCS-ADL from baseline at week 52, difference from placebo group (95% confidence interval): 0.0(−3.6, 3.6)
[2]; Test Example 2, all subject patients
  Changes in ADAS-cog from the baseline at week 52, Compound A group versus placebo group (in words): no statistically significant difference
[2]; Test Example 2, low dose group (160 mg), within 2.6 years from clinical diagnosis of AD and MMSE score of 22 or less at screening
  Changes in ADAS-cog from the baseline at week 52, Compound A low dose group versus placebo group (in words): statistically significant difference
[2]; [7]
  Change in ADAS-cog from baseline at week 52, least square means (95% confidence interval): 1.3(−0.3, 4.7)
[2]; [8]
  Change in ADAS-cog from baseline at week 52, difference from placebo group (95% confidence interval): 1.7(−1.3, 4.7)
  Change in ADAS-cog from baseline at week 52, least square means (95% confidence interval): 3.0(0.8, 5.3)
[2]; [11]
  Change in ADAS-cog from baseline at week 52, difference from placebo group (95% confidence interval): −1.2(−3.0, 0.5)
  Change in ADAS-cog from baseline at week 52, least square means (95% confidence interval): 1.9(0.5, 3.2)
[2]; [10]
  Change in ADAS-cog from baseline at week 52, difference from placebo group (95% confidence interval): −2.6(−4.8, −0.5)
[3]; Test Example 2, low dose group (160 mg)
  Reduction in ADCS-ADL from the baseline at week 52 (in words): tended to be suppressed
[3]; Test Example 2, low dose group (160 mg), week 52
  Tendency to suppress reduction in ADCS-ADL, patients within 2.6 years versus all patients (in words): more remarkable
[3]; [7]
  Change in ADCS-ADL from baseline at week 52, least square means (95% confidence interval): −5.5(−7.8, −3.2)
[3]; [8]
  Change in ADCS-ADL from baseline at week 52, difference from placebo group (95% confidence interval): −3.5(−7.8, 0.8)
  Change in ADCS-ADL from baseline at week 52, least square means (95% confidence interval): −7.5(−10.8, −4.3)
[3]; [11]
  Change in ADCS-ADL from baseline at week 52, difference from placebo group (95% confidence interval): 0.5(−2.0, 3.0)
  Change in ADCS-ADL from baseline at week 52, least square means (95% confidence interval): −6.2(−8,1, −4.3)
[3]; [10]
  Change in ADCS-ADL from baseline at week 52, difference from placebo group (95% confidence interval): 2.6(−0.5, 5.7)
[4]
  Changes in ADAS-cog from the baseline at week 52, Compound A group versus placebo group (in words): no statistically significant difference
